From patent US20150368248A1, “2-SUBSTITUTED-6-BIARYLMETHYLAMINO-9-CYCLOPENTYL-9H-PURINE DERIVATIVES, USE THEREOF AS MEDICAMENTS, AND PHARMACEUTICAL COMPOSITIONS” (UNIVERZITA PALACKEHO V OLOMOUCI, priority 2013, published 2015)
Where two headings read alike, the source gives them in different places. Values belong to the molecule of their own block, whether it stands above or below them.

Columns and labels:
Hep3B = assay: MTT cytotoxicity assay (Example 30); format: cell-based, human; conditions: Homo sapiens, Hep3B
Experimental: (§1) Cytotoxicity of the compounds is the major property determining their anticancer effect in vivo. One of the parameters used, as the basis for cytotoxicity assays, is the metabolic activity of viable cells.
(§2) We have been using the following cell lines: HUH-7 and PLC/PRF/5 cell lines were maintained in DMEM supplemented with 10% fetal bovine serum, penicillin (100 U/ml) and streptomycin (100 μg/ml). […] HepG2 cell line was maintained in EMEM supplemented with 10% fetal bovine serum, sodium pyruvate (0.11 g/1), penicillin (100 U/ml) and streptomycin (100 μg/ml). All cell lines were cultivated at 37° C. in 5% CO2. For cytotoxicity assays, 3000 cells (10000 cells in case of HepG2 cell line) were seeded into each well of 96 well plate and the next day tested compounds were added at various concentrations in triplicates. Three days after drug addition MTT stock solution (5 mg/ml) was added into each well and incubated for 4 h. After this incubation period, produced formazan was dissolved by DMSO and final absorbance was measured at 570 nm with Synergy H4 Hybrid Multi-Mode Microplate Reader.

[1] = test system: human umbilical vein endothelial cells (HUVEC); assay: HUVEC proliferation, Calcein AM; format: cell-based; conditions: Homo sapiens, HUVEC, read-out: Inhibitory concentration for HUVEC cells - IC50
Experimental: Novel 2-substituted-6-biarylmethylamino-9-cyclopentyl-9H-purine derivatives were tested for their potential anti-angiogenic properties; we analyzed its influence on the proliferation (Tab. 9), migration and tube formation of human umbilical vein endothelial cells (HUVEC). Confluent HUVECs were seeded in 96-well microtiter plates to detect their proliferation for 24 or 72 h using Calcein AM solution (Invitrogen) and a Fluoroskan Ascent microplate reader (Labsystems) as described previously (Krystof et al., 2011, Eur J Med Chem. 2011 September; 46(9):4289-94).

HepG2 = assay: MTT cytotoxicity assay (Example 30); format: cell-based; conditions: Homo sapiens
From the text: Cytotoxicity of the compounds is the major property determining their anticancer effect in vivo. One of the parameters used, as the basis for cytotoxicity assays, is the metabolic activity of viable cells. For example, a microtiter assay, which uses (3-(4,5-Dimethylthiazol-2-yl)-2,5-diphenyltetrazolium bromide (MTT), is widely used to quantitate cell proliferation and cytotoxicity. For instance, this assay is used in drug screening programs and in chemosensitivity testing. Because only metabolically active living cells reduce MTT to correspond purple formazan dye, these assays detect viable cells exclusively. The quantity of reduced MTT corresponds to the number of vital cells in the culture.
We have been using the following cell lines: HUH-7 and PLC/PRF/5 cell lines were maintained in DMEM supplemented with 10% fetal bovine serum, penicillin (100 U/ml) and streptomycin (100 μg/ml). Unique HCC-1.2 (3p) and HCC-1.1 (3sp) cell lines (Zilj et al., 2009, Future Oncol, 5(8):1169-79) and Hep3B cells were cultivated in RPMI supplemented with 10% fetal bovine serum, penicillin (100 U/ml) and streptomycin (100 μg/ml). HepG2 cell line was maintained in EMEM supplemented with 10% fetal bovine serum, sodium pyruvate (0.11 g/1), penicillin (100 U/ml) and streptomycin (100 μg/ml). All cell lines were cultivated at 37° C. in 5% CO2. For cytotoxicity assays, 3000 cells (10000 cells in case of HepG2 cell line) were seeded into each well of 96 well plate and the next day tested compounds were added at various concentrations in triplicates. Three days after drug addition MTT stock solution (5 mg/ml) was added into each well and incubated for 4 h. After this incubation period, produced formazan was dissolved by DMSO and final absorbance was measured at 570 nm with Synergy H4 Hybrid Multi-Mode Microplate Reader.

HUH-7 = assay: MTT cytotoxicity assay (Example 30); format: cell-based; conditions: Homo sapiens
Experimental: as §1, §2

PLC/PRF/5 = assay: MTT cytotoxicity assay (Example 30); format: cell-based; conditions: Homo sapiens
Experimental: as §1, §2

HCC-1.1 (3sp) = assay: MTT cytotoxicity assay (Example 30); format: cell-based; conditions: Homo sapiens
Experimental: as §1, §2

HCC-1.2 (3p) = assay: MTT cytotoxicity assay (Example 30); format: cell-based; conditions: Homo sapiens
Experimental: as §1, §2

[2] = test system: p53-regulated transcription in Arn8 cells; assay: p53-dependent transcriptional activity, β-galactosidase reporter; format: cell-based; conditions: 24 h incubation
Experimental: Stronger anticancer activity of the compounds is enhanced by its positive impact on stability and activity of the tumour suppressor p53. To measure p53-dependent transcriptional activity, β-galactosidase activity was quantified in the melanoma cell line Arn8, which had been established using stable transfection of cells with a p53-responsive reporter construct pRGCAfoslacZ (Frebung et al., Cancer Res., 52, 1992-6976). Briefly, after 24 h incubation with the inhibitors the Arn8 cells were permeabilized with 0.3% Triton X-100 for 15 min and then 4-methylumbelliferon-β-D-galactopyranoside was added as a substrate to the final concentration of 80 μM. After 1 h the fluorescence of product 4-methylumbelliferon was measured at 355/460 nm (ex/em) with a Fluoroskan Ascent microplate reader (Labsystems). Data in Tab. 8 present that series of 2-substituted-6-biarylmethylamino-9-cyclopentyl-9H-purine derivatives show a dose-dependent activatory effect on p53-regulated transcription, with the maximum impact observed between 100 and 500 nM concentrations for most of prepared compounds (Tab. 8).

CDK7/cyclin H/MAT1 = target: T1, CDK7/cyclin H/MAT1 (Homo sapiens, UniProt P50613); assay: Kinase inhibition assay, recombinant kinase, [γ-33P]ATP; format: biochemical; conditions: read-out: Residual kinase activity, CDK7
T1 construct: purchased ProQinase GmbH (Freiburg, Germany)
T1 sequence (P50613 whole entry): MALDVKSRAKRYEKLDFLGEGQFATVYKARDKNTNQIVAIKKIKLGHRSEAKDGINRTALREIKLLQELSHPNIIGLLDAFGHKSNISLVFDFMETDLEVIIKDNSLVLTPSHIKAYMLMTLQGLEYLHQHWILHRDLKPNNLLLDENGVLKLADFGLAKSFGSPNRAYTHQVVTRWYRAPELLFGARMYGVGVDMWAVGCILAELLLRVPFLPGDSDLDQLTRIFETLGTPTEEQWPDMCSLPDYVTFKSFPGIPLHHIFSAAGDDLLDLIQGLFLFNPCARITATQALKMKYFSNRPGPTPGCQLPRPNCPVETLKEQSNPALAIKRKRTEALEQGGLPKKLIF
T1 sequence (P51946 whole entry partner): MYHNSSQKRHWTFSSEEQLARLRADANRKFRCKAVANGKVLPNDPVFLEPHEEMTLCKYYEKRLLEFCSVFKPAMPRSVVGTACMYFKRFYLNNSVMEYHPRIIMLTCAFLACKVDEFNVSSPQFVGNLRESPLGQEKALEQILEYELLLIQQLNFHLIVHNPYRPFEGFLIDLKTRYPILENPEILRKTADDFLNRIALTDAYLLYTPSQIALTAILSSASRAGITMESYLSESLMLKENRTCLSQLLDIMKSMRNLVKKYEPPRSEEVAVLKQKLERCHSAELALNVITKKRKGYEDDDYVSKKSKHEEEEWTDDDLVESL
T1 sequence (P51948 whole entry partner): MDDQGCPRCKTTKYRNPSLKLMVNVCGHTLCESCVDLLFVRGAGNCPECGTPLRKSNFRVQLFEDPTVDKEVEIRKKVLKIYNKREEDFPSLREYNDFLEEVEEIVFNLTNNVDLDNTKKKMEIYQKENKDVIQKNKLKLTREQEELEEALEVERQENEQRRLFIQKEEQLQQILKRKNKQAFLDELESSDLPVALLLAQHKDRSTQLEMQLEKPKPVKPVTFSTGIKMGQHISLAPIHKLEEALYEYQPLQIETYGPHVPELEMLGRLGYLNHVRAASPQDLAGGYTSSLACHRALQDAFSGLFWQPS
Experimental: (§3) CDK2/Cyclin E kinase was produced in Sf9 insect cells via baculoviral infection and purified on a NiNTA column (Qiagen). CDK5/p35, CDK7Cyclin H/MAT1 and CDK9/Cyclin T1 was purchased from ProQinase GmbH. The kinase reactions were assayed with 1 mg/mL histone H1 (for CDK2 and CDK5) or (YSPTSPS)2KK peptide (for CDK7 and CDK9) in the presence of 15/0.15/1.5/1.5 μM ATP (for CDK2/CDK5/CDK7CDK9), 0.05 μCi [γ-^33P]ATP and of the test compound in a final volume of 10 μL, all in a reaction buffer (60 mM HEPES-NaOH, pH 7.5, 3 mM MgCl2, 3 mM MnCl2, 3 μM Na-orthovanadate, 1.2 mM DTT, 2.5 μg/50 μl PEG20,000). The reactions were stopped by adding 5 μL of 3% aq H3PO4. Aliquots were spotted onto P-81 phosphocellulose (Whatman), washed 3× with 0.5% aq H3PO4 and finally air-dried.
(§4) CDK1/cyclin B and CDK2/cyclin E kinases were produced in Sf9 insect cells via baculoviral infection, while CDK5/p35, CDK7/cyclin H/MAT1, and CDK9/cyclin T1 were purchased from ProQinase (Freiburg, Germany) and assayed as described previously (35). The kinase reactions were assayed with 1 mg/ml histone H1 (for CDK2 and CDK5) or (YSPTSPS)2KK peptide (for CDK7 and CDK9) in the presence of 15/0.15/1.5/1.5 […] ATP (for CDK2/CDK5/CDK7CDK9), […] [γ-^33P]ATP and of the test compound in a final volume of […]. The reaction buffer contained 60 mM HEPES-NaOH, pH 7.5, 3 mM MgCl2, 3 mM MnCl2, 3 mM Na-orthovanadate, 1.2 mM DTT, 2.5 mg/50 ml PEG20.000. The reactions were stopped by adding […] of 3% H3PO4. Aliquots were spotted onto P-81 phosphocellulose (Whatman, GE Healthcare Biosciences, Pittsburgh, USA), washed 3 times with 0.5% H3PO4 and finally air-dried. Kinase inhibition was quantified using a FLA-7000 digital image analyzer (Fujifilm, Tokyo, Japan).

CDK5/p35 = target: T2, CDK5/p35 (Homo sapiens, UniProt Q00535); assay: as above; format: biochemical; conditions: read-out: Residual kinase activity, CDK5
T2 construct: purchased ProQinase GmbH (Freiburg, Germany)
T2 sequence (Q00535 whole entry): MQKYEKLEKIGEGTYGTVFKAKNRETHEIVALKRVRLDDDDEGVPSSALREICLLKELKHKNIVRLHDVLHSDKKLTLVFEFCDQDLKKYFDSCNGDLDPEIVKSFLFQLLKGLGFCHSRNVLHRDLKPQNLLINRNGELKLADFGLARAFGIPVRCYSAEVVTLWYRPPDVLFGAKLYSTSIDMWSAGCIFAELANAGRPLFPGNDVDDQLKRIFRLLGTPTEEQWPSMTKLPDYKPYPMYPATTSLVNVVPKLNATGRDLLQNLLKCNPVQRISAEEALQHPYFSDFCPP
T2 sequence (Q15078 whole entry partner): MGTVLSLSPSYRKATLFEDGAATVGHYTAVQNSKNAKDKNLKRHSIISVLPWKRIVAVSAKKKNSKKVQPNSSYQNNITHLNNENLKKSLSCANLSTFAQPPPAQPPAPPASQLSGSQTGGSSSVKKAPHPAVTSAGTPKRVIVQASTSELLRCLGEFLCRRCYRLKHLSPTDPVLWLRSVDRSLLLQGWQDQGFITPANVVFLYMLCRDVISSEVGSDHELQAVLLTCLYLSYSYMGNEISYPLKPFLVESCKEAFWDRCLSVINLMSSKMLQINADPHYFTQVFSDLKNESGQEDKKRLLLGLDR
Experimental: as §3, §4

CDK9/Cyclin T1 = target: T3, CDK9/Cyclin T1 (Homo sapiens, UniProt P50750); assay: as above; format: biochemical; conditions: read-out: Residual kinase activity, CDK9
T3 construct: purchased ProQinase GmbH (Freiburg, Germany)
T3 sequence (P50750 whole entry): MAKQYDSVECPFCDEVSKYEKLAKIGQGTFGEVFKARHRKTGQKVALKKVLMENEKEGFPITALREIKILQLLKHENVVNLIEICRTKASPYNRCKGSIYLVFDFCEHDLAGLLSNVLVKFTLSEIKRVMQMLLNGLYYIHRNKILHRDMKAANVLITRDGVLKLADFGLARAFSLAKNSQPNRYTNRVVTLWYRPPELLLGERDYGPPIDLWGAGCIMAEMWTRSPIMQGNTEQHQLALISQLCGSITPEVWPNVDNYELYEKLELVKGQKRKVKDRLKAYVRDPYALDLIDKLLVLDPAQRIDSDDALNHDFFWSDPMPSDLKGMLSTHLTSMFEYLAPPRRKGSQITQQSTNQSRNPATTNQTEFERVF
T3 sequence (O60563 whole entry partner): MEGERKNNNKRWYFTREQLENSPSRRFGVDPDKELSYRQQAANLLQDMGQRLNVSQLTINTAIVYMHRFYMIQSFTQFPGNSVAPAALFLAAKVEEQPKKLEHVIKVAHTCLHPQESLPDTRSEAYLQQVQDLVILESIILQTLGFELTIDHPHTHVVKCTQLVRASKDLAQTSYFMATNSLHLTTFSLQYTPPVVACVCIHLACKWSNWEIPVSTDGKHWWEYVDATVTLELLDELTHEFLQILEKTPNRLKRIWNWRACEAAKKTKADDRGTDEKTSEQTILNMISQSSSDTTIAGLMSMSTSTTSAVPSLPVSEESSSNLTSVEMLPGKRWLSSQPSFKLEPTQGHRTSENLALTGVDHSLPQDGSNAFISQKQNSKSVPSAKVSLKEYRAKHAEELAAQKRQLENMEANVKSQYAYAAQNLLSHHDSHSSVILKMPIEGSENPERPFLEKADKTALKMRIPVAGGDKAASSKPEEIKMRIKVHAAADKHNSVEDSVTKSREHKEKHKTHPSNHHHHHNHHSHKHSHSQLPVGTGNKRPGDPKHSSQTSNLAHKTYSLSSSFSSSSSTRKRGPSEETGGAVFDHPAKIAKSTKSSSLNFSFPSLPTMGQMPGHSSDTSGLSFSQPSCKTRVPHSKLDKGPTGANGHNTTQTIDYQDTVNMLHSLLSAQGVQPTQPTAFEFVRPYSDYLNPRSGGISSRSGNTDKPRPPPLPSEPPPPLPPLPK
Experimental: as §3, §4

[3] = test system: caspase-3/7 activity in PLC/PRF/5 cell line; assay: One-step cellular caspase-3/7 activity assay; format: cell-based, human; conditions: 24 hours incubation, relative to 0 nM = 1.00
Experimental: (§5) Measurements of proapoptotic properties of new compounds were based on quantification of enzymatic activities of caspases, concretely caspases-3/7. Activity of cellular caspase-3/7 was measured according to Carrasco et al., 2003, BioTechniques, 34(5): 1064-67. Briefly, Hep3B and PLC/PRF/5 cells were incubated in the densities of 10000 cells/well in a 96-well plate overnight. Next day, the compounds in appropriate concentrations were added and cells were incubated for the 24 hours. After incubation, 3× caspase-3/7 assay buffer (150 mM HEPES pH 7.4, 450 mM NaCl, 150 mM KCl, 30 mM MgCl2, 1.2 mM EGTA, 1.5% Nonidet P40, 0.3% CHAPS, 30% sucrose, 30 mM DTT, 3 mM PMSF) with 150 μM Ac-DEVD-AMC as a substrate (Sigma-Aldrich) was added to the wells and plates were incubated at […]. The caspase-3/7 activity was measured after 6 hours using Fluoroskan Ascent microplate reader (Labsystems) at 346 nm/442 nm (excitation/emission).

[4] = test system: caspase-3/7 activity in Hep3B cell line; assay: One-step cellular caspase-3/7 activity assay; format: cell-based, human; conditions: 24 hours, 0 nM = 1.00
Experimental: as §5

[5] = Table 3, read-out: Inhibitory concentration IC50, Hep3B (reference molecules)
[6] = HepG2, Table 3, read-out: Inhibitory concentration IC50, HepG2 (reference molecules)
[7] = Huh-7, Table 3, read-out: Inhibitory concentration IC50, HUH-7 (reference molecules)
[8] = PLC-PRF-5, Table 3, read-out: Inhibitory concentration IC50, PLC/PRF/5 (reference molecules)
[9] = Table 3, read-out: Inhibitory concentration IC50, AKH3sp (reference molecules)
[10] = HCC-1.2, Table 3, read-out: Inhibitory concentration IC50, AKH3p (reference molecules)

Structure (SMILES): CNC(=O)c1cc(Oc2ccc(NC(=O)Nc3ccc(Cl)c(C(F)(F)F)c3)cc2)ccn1 [sorafenib, reference compound]
- IC50 (Hep3B; [5]): 3.74 µM
- IC50 ([1]; 24 h): > 50 µM
- IC50 ([1]; 72 h): > 10 µM
- IC50 (HepG2; [6]): 5.85 µM
- IC50 (HUH-7; [7]): 2.86 µM
- IC50 (PLC/PRF/5; [8]): 4.06 µM
- IC50 (HCC-1.1 (3sp); [9]): 6.39 µM
- IC50 (HCC-1.2 (3p); [10]): 4.42 µM

Structure (SMILES): COc1cccc2c1C(=O)c1c(O)c3c(c(O)c1C2=O)C[C@@](O)(C(=O)CO)C[C@@H]3O[C@H]1C[C@H](N)[C@H](O)[C@H](C)O1 [doxorubicin, reference compound]
- IC50 (Hep3B; [5]): 0.46 µM
- IC50 ([1]; 24 h): > 6.6 µM
- IC50 ([1]; 72 h): > 6.6 µM
- IC50 (HepG2; [6]): 1.38 µM
- IC50 (HUH-7; [7]): 1.25 µM
- IC50 (PLC/PRF/5; [8]): 0.67 µM
- IC50 (HCC-1.1 (3sp); [9]): 0.27 µM
- IC50 (HCC-1.2 (3p); [10]): 0.54 µM

- melting point: 114 to 116 °C
Structure (SMILES): NC1CCC(Nc2nc(NCc3ccc(Br)nc3)c3ncn(C4CCCC4)c3n2)CC1 (stereo not drawn) [BP110, N^2-(4-amino-cyclohexyl)-N^6-(6-bromo-pyridin-3-ylmethyl)-9-cyclopentyl-9H-purine-2,6-diamine]
- IC50 (Hep3B; 72 h, MTT, three days after drug addition, read-out: Inhibitory concentration IC50, Hep3B): 0.488 µM
- IC50 (HepG2; HepG2, 72 h, MTT, three days after drug addition, read-out: Inhibitory concentration IC50, HepG2): > 1 µM
- IC50 (HUH-7; Huh-7, 72 h, MTT, three days after drug addition, read-out: Inhibitory concentration IC50, HUH-7): 0.513 µM
- IC50 (PLC/PRF/5; PLC-PRF-5, 72 h, MTT, three days after drug addition, read-out: Inhibitory concentration IC50, PLC/PRF/5): 0.4 µM
- IC50 (HCC-1.1 (3sp); 72 h, MTT, three days after drug addition, read-out: Inhibitory concentration IC50, 3sp): 0.515 µM
- IC50 (HCC-1.2 (3p); HCC-1.2, 72 h, MTT, three days after drug addition, read-out: Inhibitory concentration IC50, 3p): 0.334 µM

- remaining activity at 0.1 µM (CDK7/cyclin H/MAT1; 100 nM): 76.3%
- remaining activity at 1 µM (CDK7/cyclin H/MAT1; 1000 nM): 68.3%
- remaining activity at 0.1 µM (CDK5/p35; 100 nM): 76.7%
- remaining activity at 1 µM (CDK5/p35; 1000 nM): 39.6%
- remaining activity at 0.1 µM (CDK9/Cyclin T1; 100 nM): 52.7%
- remaining activity at 1 µM (CDK9/Cyclin T1; 1000 nM): 23.2%
- melting point: 128 to 129 °C
Structure (SMILES): CC(C)(O)CNc1nc(NCc2ccc(-c3ccco3)nc2)c2ncn(C3CCCC3)c2n1 [BP117, 1-{9-cyclopentyl-6-[(6-furan-2-yl-pyridin-3-ylmethyl)-amino]-9H-purine-2-ylamino}-2-methyl-propan-2-ol]
- Concentration of maximum activation [2]: 950 nM
- Relative caspase-3/7 activity in PLC/PRF/5 cell line ([3]; compound concentration 160 nM): 0.79
- Relative caspase-3/7 activity in PLC/PRF/5 cell line ([3]; compound concentration 320 nM): 1.17
- Relative caspase-3/7 activity in PLC/PRF/5 cell line ([3]; compound concentration 640 nM): 2.60
- Relative caspase-3/7 activity in PLC/PRF/5 cell line ([3]; compound concentration 1280 nM): 2.99
- Relative caspase-3/7 activity in Hep3B cell line ([4]; 200 nM): 0.77
- Relative caspase-3/7 activity in Hep3B cell line ([4]; 400 nM): 0.89
- Relative caspase-3/7 activity in Hep3B cell line ([4]; 800 nM): 1.06
- Relative caspase-3/7 activity in Hep3B cell line ([4]; 1600 nM): 2.00
